This note sets out measurements from paper PMC12040169 (PLOS Biology, 2025).

The term viability denotes a read-out of living cells in per cent, often relative to untreated cells.

The nature of this series: in vitro. To be noted: human, hela cells, % viability.
On to `CC(C)(C)NC(=O)COc1ccc(CNCc2ccc(C(=O)O)cc2)cc1` [CBK287204], for which the viability at 28.5 h, 10 µM worked out at 78.1%.
As for `CN(CC1CCCCO1)C(=O)c1ccc(-c2ccccc2C(N)=O)cc1` (stereo not shown) [CBK306967], the figure is 92.6%; as for `NC(=O)CN1CCN(c2nccnc2Oc2ccc(F)cc2)CC1` [CBK083018T], 98.3%.
As for `Cc1nonc1NC(=O)CN1CCCCC1` [CBK261839], the figure is 110%.
With `O=C(C(Cc1ccccc1)N1C(=O)C2CCCCC2C1=O)N1CCN(Cc2ccc3c(c2)OCO3)CC1` (stereo not shown) [CBK264648], the viability at 28.5 h, 10 µM is 102%.
As for `O=C(COc1ccc(S(=O)(=O)N2CCCCC2)cc1)NCc1ccncc1` [CBK269053], the figure is 92.5%; as for `Cc1csc(-c2ccc(C(=O)N(C)CCN(C)C)c(NCC3CC3)n2)c1` [CBK106279], 84.2%.
As for `Cc1nn(C)c(C)c1CN(C)C(=O)CCCC(=O)O` [CBK286879], the figure is 82.8%.
As for `Cc1ccc(-c2ccc(/C=N\NC(=O)C3C(=O)NCC3c3ccccc3)o2)cc1Cl` (stereo not shown) [CBK262808], the figure is 98.7%; as for `Nc1ncc(-c2ccc(OC(F)(F)F)cc2)nc1-c1ccc(O)cc1` [CBK122506], 95.8%; as for `CCSc1nc(N)c(NC(=O)c2ccco2)c(=O)[nH]1` [CBK287613], 92.4%.
`CC(C)(C)c1ccc(-n2cc(-c3ccc(F)cc3F)nn2)cc1` [CBK094818]: the viability at 28.5 h, 10 µM came out at 85.4%.
The value for `O=S(=O)(Nc1cccc2ncccc12)c1ccc(OC(F)(F)F)cc1` [CBK044490] was 112%; that for `COc1ccccc1CC(=O)N1C2CCC1CC(O)(c1ccco1)C2` (stereo not shown) [CBK284106] was 88.8%; that for `CC(=O)Nc1c(Nc2ccccc2)c2ccccc2oc1=O` [CBK261756] was 88.1%.
As for `COc1ccc(C)cc1NC(=O)CSc1nc(C)cc(C(F)(F)F)n1` [CBK270205], the figure is 96%; as for `CC(C)(CO)Cn1c(=O)[nH]c2ncc(-c3ccc(C(N)=O)cc3)nc21` [CBK064787], 88.5%; as for `COc1ccc(/C(N)=N/OC(=O)C(C)Oc2ccc(C(C)(C)C)cc2)cc1OC` (stereo not shown) [CBK267378], 94.9%.
The value for `O=C(CN1CCCCC1CN1CCOCC1)NCc1ccccn1` (stereo not shown) [CBK304375] was 115%.
As to `Oc1ccc(-c2cccc(N3CCN(c4ccccn4)CC3)n2)cc1` [CBK037028], the viability at 28.5 h, 10 µM came to 103%.
The value for `Cn1ccnc1SCC(=O)Nc1ccc(S(N)(=O)=O)cc1` [CBK263190] was 84.6%.
The value for `Cc1ccc(-c2nn(-c3cc(N4CCN(CCO)CC4)ccc3[N+](=O)[O-])c(=O)c3ccccc23)cc1C` [CBK263713] was 82.6%; that for `Cc1cc2oc(=O)cc(C)c2cc1NC(=O)c1ccccc1C(=O)O` [CBK286572] was 92.1%.
The value for `CCn1cc(C(=O)O)c(=O)c2cnc(N3CCN(C(=S)Nc4cc5oc6ccccc6c5cc4OC)CC3)nc21` [CBK267929] was 101%; that for `CC(NS(=O)(=O)c1ccc(F)cc1)C(=O)Nc1ccc(C(N)=O)cc1` (stereo not shown) [CBK267658] was 104%.
As to `O=C(Nc1ccc(Cl)cc1)N1CCCC(CO)C1` (stereo not shown) [CBK156047], the viability at 28.5 h, 10 µM was determined as 112%.
As for `COC1C(O)C(CO)OC1n1ccc(=O)[nH]c1=O` (stereo not shown) [CBK201166], the figure is 93.6%; as for `O=C(Nc1ccc2n(c1=O)C[C@H]1C[C@@H]2CN(C(=O)Cc2cccs2)C1)c1ccco1` [CBK289204], 102%; as for `Cc1ccc(CN(Cc2ncc[nH]2)C2CC(C)(C)NC(C)(C)C2)o1` [CBK283191], 96%.
With `O=C(C1CC1)N1C[C@@H](c2ccsc2)[C@@H]2CN(C3CCCC3)CC[C@@H]21` [CBK283382], the viability at 28.5 h, 10 µM was determined as 107%.
For `CCOC(=O)c1sc(NS(=O)(=O)c2ccc(C(=O)O)cc2)cc1C` [CBK296623], the viability at 28.5 h, 10 µM is 100%.
